From patent publication US20110064694A1, “ANTI-HEPATITIS C ACTIVITY OF MESO-TETRAKIS-PORPHYRIN ANALOGUES” (YALE UNIVERSITY, priority 2009, published 2011)
Read-outs that look alike come from different tables or passages of the source.

Tests used:
HBV = experiment: Anti-HBV activity in 2.2.15 cells by Southern DNA hybridization; type: cell-based; conditions: read-out: Antiviral Activity EC50 HBV
Description: (§1) Determination of antiviral activities. Ff-luciferase reporter activity was used to monitor the replication of HCV replicons in Huhluc/neo-ET cells free from G418. Replicon cells were seeded at the density of 5×10^3 cells per well in 96-well plates. The following day, replicon cells were incubated in duplicates with DMSO or serially diluted tetraphenylporphyrin (TPP) analogues at 37″C. 72 hrs after co-incubation, cells were lysed with ice-cold passive lysis reagent after PBS wash, and the luciferase activity was measured with the luciferase assay kit (Promega) and Tecan FARCyte luminometer (GE Healthcare) following the manufacturers' descriptions. The relative light units (RLU) were adjusted as percentage readings of the compound-free controls and the 50% effective concentration (EC50) was determined from dose-effect curve by nonlinear regression analysis using Origin 6.1 (OriginLab Software). TPP analogues were also screened in vitro against HIV-I IIIB and HBV as previously described (26,41). Briefly 1×10^3 MT-2 cells per well were exposed in triplets to 0.1TC1D50/cell (50% of the tissue culture infectious dose) of HIV-1 IIIB and cultured in the presence of compounds. The EC50 values were estimated by MTT-based colorimetric quantitation of viral CPE after 5 days. Anti-HBV activities were evaluated in 2.2.15 cells by means of Southern DNA hybridization.

HIV-1 IIIB = experiment: Anti-HIV activity in MT-2 cells, MTT quantitation of viral CPE; type: cell-based; conditions: MT-2 cells, 5 days; read-out: Antiviral Activity EC50 HIV-1 IIIB
Description: as §1

MT-2 cells = experiment: Cytotoxicity in uninfected MT-2 cells; type: cell-based; conditions: uninfected MT-2 cells, 5 days; read-out: Cytotoxicity CC50 MT-2
Description: (§2) Determination of cytotoxicity and mitochondrial DNA toxicity. Exponentially growing Huh-7 cells were seeded at a density of 1×10^4 cells per well in a 24-well plate and incubated with TPP analogues for 3 days. Cells were fixed and stained with 0.5% methylene blue in 50% ethanol followed by extensive washing. After the plates were air dried, cells were solubilized in 1% sarkosyl and cell growth was determined from the extent of absorption by spectrophotometric measurements at 595 nm (Biotek Instruments). For compounds whose dark color interfered with 595-nm reading, cytotoxicity was measured by the CellTiter-Glo luminesecent cell viability assay following manufacturer's description (Promega). Cytotoxicity in MT-2 cells was determined from colorimetric quantitation of uninfected MT-2 cells after 5 days of coincubation.

Huh-7 cells = experiment: Cytotoxicity in Huh-7 cells (methylene blue or CellTiter-Glo); type: cell-based; conditions: Huh-7 cells, 3 days; read-out: Cytotoxicity CC50 Huh-7
Description: as §2

[1] = tested on: mitochondrial DNA content of CEM cells; experiment: Mitochondrial DNA toxicity, slot blot of CEM cell lysates; type: cell-based
Description: Quantitation of mitochondrial DNA content was performed as previously published (18). Briefly, CEM cell lysates were spotted onto Hybond paper using the Miliford II slot blot apparatus (Schleicher & Schuell). MTDNA was detected with mtDNA-specific probe and then reprobed with Alu probe for internal control. The autoradiographic bands were quantified on scanning densitometer (Molecular Dynamics).

[2] = tested on: HCV genotype 1b (Con1) replicon; experiment: Effect of serum concentration on anti-HCV activity, luciferase assay in Huh-luc/neo-ET cells; type: cell-based, Hepatitis C virus; conditions: for EC50: 72 hrs
Description: Cells were harvested after 72 hrs for luciferase activity assays.
Huh-luc/neo-ET cells were incubated with compound 1, 4 or 6 for 72 hrs and the anti-HCV activity was evaluated by measuring the reduction of reporter luciferase activities.

[3] = tested on: HCV genotype 1b (Con1) replicon
Description: (§3) Quantification of HCV RNA and NS5A protein. Huhluc/neo-ET cells were seeded at the density of 1×10^5 cells per well in 6-well plate and treated with either DMSO control or up to 250 nM of compound 6. Cells were harvested after 24, 48, or 72 hrs of incubation and subjected to luciferase activity assay, RNA quantification and immunoblotting. Results were averaged from three independent repeats. Luciferase activity assay was done in triplets per experiment as aforementioned and RLU reading was normalized against the total protein level per sample determined from Bradford assay. Total RNA was isolated using RNeasy Mini Kit (QIAGEN) and the RNA concentrations were measured by spectrophotometry (GE Healthcare) followed by dilution into 50 ng/μL. Replicon RNA was quantitated in triplicates by amplifying the HCV 5′UTR using one-step real-time reverse transcriptase polymerase chain reactions (qRT-PCR). Each 20 μL replicate contained 100 ng of total RNA, 100 nM probe (6FAM-5′-[…]-3′-MGBNFQ, Applied Biosystems) and 200 nM forward and reverse primers (5′-[…]-3′, and 5′-[…]-3′ respectively, Yale University W.M. Keck Facility) (21), together with iScript reverse transcriptase and reaction mix for one-step RT-PCR (Bio-Rad Laboratories). Reactions were run in the iCycler iQ RealTime thermocycler detection system (Bio-Rad Laboratories) as follows: 10 min at 50° C., 5 min at 95° C., followed by 42 cycles at 95° C. for 15 sec and 60° C. for […]. Results were normalized against the β-actin mRNA levels in each sample (20).

[4] = tested on: HCV genotype 1b (Con1) replicon RNA; experiment: HCV RNA quantification by qRT-PCR in Huh-luc/neo-ET cells; type: cell-based, Hepatitis C virus; conditions: for EC50: qRT-PCR, estimated
Description: as §3
Activity of compound 6 against genotype 2a (JFH-I) replicons. In parallel to Huh-luc/neo-ET cells, 1×10^5 YSGR-JFH cells per well were incubated with DMSO control, compound 6, or recombinant human IFNα-2a (Pestka Biomedical Laboratories) in 6-well plates. Cells were harvested after 72 hrs of co-incubation and HCV RNAs were quantitated by qRT-PCR and normalized as described above.

[5] = tested on: mitochondrial potential of Huh-luc/neo-ET cells; conditions: up to 1 M for 9 days, compared with mock-treated control
Description: We treated Huh-luc/neo-ET cells with up to 1 µM of compound 6 for 9 days, during which the media were replenished every 3 days and the cells were passaged once. Live cells were stained with the ratiometric indicator JC-1 (Invitrogen) in order to measure the mitochondrial potential using confocal microscopy.

Which EC50 (HBV) does the source give for `O=C(O)c1cc(C(=O)O)cc(-c2ccc(-c3c4nc(c(-c5ccc(-c6cc(C(=O)O)cc(C(=O)O)c6)cc5)c5ccc([nH]5)c(-c5ccc(-c6cc(C(=O)O)cc(C(=O)O)c6)cc5)c5nc(c(-c6ccc(-c7cc(C(=O)O)cc(C(=O)O)c7)cc6)c6ccc3[nH]6)C=C5)C=C4)cc2)c1` [Compound 6, Meso-teftakis-(3,5-dicarboxy-4,4′-biphenyl)porphyrin] here?
The EC50 was greater than 20 µM.

What about the EC50 (HIV-1 IIIB) of the same compound?
The EC50 was 3.67 ± 1.22 µM.

What about the CC50 (MT-2 cells) of the same compound?
The CC50 was 18 ± 4.24 µM.

What about the CC50 (Huh-7 cells) of the same compound?
Its CC50 is greater than 50 µM.

What about the “effect on amount of mitochondrial DNAs” value [1] of the same compound?
The value was “did not alter the amount of mitochondrial DNAs”.

And the IC50 ([1]; CEM cells, read-out: Mitochondrial DNA Toxicity IC50 CEM)?
The IC50 was greater than 50 µM.

What about the EC50 ([2]; 5% FBS, read-out: EC50 5% FBS) of the same compound?
Its EC50 is 13 ± 3 nM.

What about the EC50 ([2]; 40% FBS, read-out: EC50 40% FBS) of the same compound?
Its EC50 is 69 ± 11 nM.

What about the “Fold Change in EC50 5% FBS” value ([2]; EC50 at 5% FBS as one fold) of the same compound?
Its value is 1.00.

What about the EC50 ([2]; extrapolation of the plot of EC50 vs serum amount, read-out: EC50 0% FBS (Theoretical)) of the same compound?
The EC50 was 6.5 nM.

What about the EC50 ([2]; read-out: EC50 10% FBS, 10% FBS) of the same compound?
Its EC50 is 24 ± 5 nM.

And the EC50 ([2]; read-out: EC50 20% FBS, 20% FBS)?
Its EC50 is 39 ± 5 nM.

And the “Fold Change in EC50 10% FBS” value ([2]; relative to EC50 at 5% FBS)?
The value was 1.92 ± 0.22.

And the “Fold Change in EC50 20% FBS” value ([2]; relative to EC50 at 5% FBS)?
Its value is 3.20 ± 0.96.

And the “Fold Change in EC50 40% FBS” value ([2]; relative to EC50 at 5% FBS)?
Its value is 5.56 ± 0.85.

What about the “improvement of 72-hr EC50 compared with 24-hrs incubation, luciferase” value ([3]; 72 hr vs 24 hr) of the same compound?
Its value is “over 3 fold”.

And the EC50 ([3]; read-out: 24-hr EC50, replicon luciferase activity, 24 hrs incubation)?
The EC50 was 57.8 nM.

And the EC50 ([3]; read-out: 48-hr EC50, replicon luciferase activity, 48 hrs incubation)?
The EC50 was 19.2 nM.

And the EC50 ([3]; read-out: 72-hr EC50, replicon luciferase activity, 72 hrs incubation)?
Its EC50 is 17.6 nM.

And the EC50 ([4]; 24 hrs, read-out: 24-hr EC50, HCV RNA level)?
Its EC50 is 67.8 nM.

And the EC50 ([4]; 48 hrs, read-out: 48-hr EC50, HCV RNA level)?
Its EC50 is 36.2 nM.

What about the “improvement of 72-hr EC50 compared with 24-hr incubation, HCV RNA” value ([4]; 72 hr vs 24 hr) of the same compound?
The value was “over 2 fold”.

And the “effect on mitochondrial potential” value [5]?
Its value is “did not affect the mitochondrial potential”.
